How the values were obtained:
Assay type in all cases: in vivo
[1] = tested on: Beet Armyworm (Spodoptera exigua, LAPHEG) ("BAW"); assay: Bioassay on Beet Armyworm (BAW), 128-well diet tray assay; details: 168 h, 50 μg/cm^2 on artificial diet, second instar larvae, five to seven days, 25° C., average of eight wells, read-out: BAW % Control (or Mortality) rating
Method: (§1) Certain molecules disclosed in this document were tested against BAW and CEW using procedures described in the following examples. In the reporting of the results, the “BAW & CL Rating Table” was used (See Table Section).
Bioassays on BAW were conducted using a 128-well diet tray assay. one to five second instar BAW larvae were placed in each well (3 mL) of the diet tray that had been previously filled with 1 mL of artificial diet to which 50 μg/cm^2 of the test compound (dissolved in 50 μL of 90:10 acetone-water mixture) had been applied (to each of eight wells) and then allowed to dry. Trays were covered with a clear self-adhesive cover and held at 25° C., 14:10 light-dark for five to seven days. Percent mortality was recorded for the larvae in each well; activity in the eight wells was then averaged. The results are indicated in the table entitled “Table ABC: Biological Results” (See Table Section).

[2] = tested on: Yellow Fever Mosquito (Aedes aegypti, AEDSAE) ("YFM"); assay: Bioassay on Yellow Fever Mosquito (YFM), 96-well plate larval assay; details: about 1 day-old larvae, from 4000 ppm master plate, scored on mortality after 3 days
Method: Certain molecules disclosed in this document were tested against YFM using procedures described in the following paragraph. In the reporting of the results, the “YFM Rating Table” was used (See Table Section).
Master plates containing 400 μg of a molecule dissolved in 100 μL of dimethyl sulfoxide (DMSO) (equivalent to a 4000 ppm solution) are used. A master plate of assembled molecules contains 15 μL per well. To this plate, 135 μL of a 90:10 water:acetone mixture is added to each well. A robot (Biomek® NXP Laboratory Automation Workstation) is programmed to dispense 15 μL aspirations from the master plate into an empty 96-well shallow plate (“daughter” plate). There are 6 reps (“daughter” plates) created per master. The created daughter plates are then immediately infested with YFM larvae.
The day before plates are to be treated, mosquito eggs are placed in Millipore water containing liver powder to begin hatching (4 g. into 400 mL). After the daughter plates are created using the robot, they are infested with 220 μL of the liver powder/larval mosquito mixture (about 1 day-old larvae). After plates are infested with mosquito larvae, a non-evaporative lid is used to cover the plate to reduce drying. Plates are held at room temperature for 3 days prior to grading. After 3 days, each well is observed and scored based on mortality.

[3] = tested on: Cabbage Looper (Trichoplusia ni, TRIPNI) ("CL"); assay: Bioassay on Cabbage Looper (CL), 128-well diet tray assay; details: 168 h, read-out: CL % Control (or Mortality) rating
Method: as §1
Bioassays on CL were conducted using a 128-well diet tray assay. one to five second instar CL larvae were placed in each well (3 mL) of the diet tray that had been previously filled with 1 mL of artificial diet to which 50 μg/cm^2 of the test compound (dissolved in 50 μL of 90:10 acetone-water mixture) had been applied (to each of eight wells) and then allowed to dry. Trays were covered with a clear self-adhesive cover and held at 25° C., 14:10 light-dark for five to seven days. Percent mortality was recorded for the larvae in each well; activity in the eight wells was then averaged. The results are indicated in the table entitled “Table ABC: Biological Results” (See Table Section).

## Cc1ccc(C)c(-c2ccccc2C(=O)NCc2ccc(-c3ncn(-c4ccc(OC(F)(F)F)cc4)n3)cc2)c1 [F35, 2′,5′-Dimethyl-N-(4-(1-(4-(trifluoromethoxy)phenyl)-1H-1,2,4-triazol-3-yl)benzyl)biphenyl-2-carboxamide]
[1]
  mortality at 50 µg/cm2: 0 to 50%
[2]
  YFM % Control (or Mortality) rating: B (More than 0 - Less than 80)
[3]
  mortality at 50 µg/cm2: 50 to 100%

## O=C(Nc1ccc(-c2ncn(-c3ccc(OC(F)(F)F)cc3)n2)cc1)c1ccc(-c2ccccc2)cc1 [F25, N-(4-(1-(4-(trifluoromethoxy)phenyl)-1H-1,2,4-triazol-3-yl)phenyl)-[1,1′-biphenyl]-4-carboxamide]
[1]
  mortality at 50 µg/cm2: 0%
[2]
  YFM % Control (or Mortality) rating: D (No activity noticed in this bioassay)
[3]
  mortality at 50 µg/cm2: 0%

## CC(C)c1cccc(C(=O)Nc2ccc(-c3ncn(-c4ccc(C(F)(F)F)cc4)n3)cc2)c1 [F24, 3-Isopropyl-N-(4-(1-(4-(trifluoromethyl)phenyl)-1H-1,2,4-triazol-3-yl)phenyl)benzamide]
[1]
  mortality at 50 µg/cm2: 0%
[2]
  YFM % Control (or Mortality) rating: D (No activity noticed in this bioassay)
[3]
  mortality at 50 µg/cm2: 50 to 100%

## O=C(NCc1ccc(-c2ncn(-c3ccc(OC(F)(F)F)cc3)n2)cc1)c1ccccc1 [F32, N-(4-(1-(4-(trifluoromethoxy)phenyl)-1H-1,2,4-triazol-3-yl)benzyl)benzamide]
[1]
  mortality at 50 µg/cm2: 0%
[2]
  YFM % Control (or Mortality) rating: D (No activity noticed in this bioassay)
[3]
  mortality at 50 µg/cm2: 0%

## O=C(Nc1ccc(-c2ncn(-c3ccc(OC(F)(F)F)cc3)n2)cc1)c1ccccc1COC1CCOCC1 [F23, 2-(((Tetrahydro-2H-pyran-4-yl)oxy)methyl)-N-(4-(1-(4-(trifluoromethoxy)phenyl)-1H-1,2,4-triazol-3-yl)phenyl)benzamide]
[1]
  mortality at 50 µg/cm2: 50 to 100%
[2]
  YFM % Control (or Mortality) rating: D (No activity noticed in this bioassay)
[3]
  mortality at 50 µg/cm2: 50 to 100%

## CC(C)c1cccc(C(=O)Nc2ccc(-c3ncn(-c4ccc(OC(F)(F)F)cc4)n3)cc2)c1 [F15, 3-Isopropyl-N-(4-(1-(4-(trifluoromethoxy)phenyl)-1H-1,2,4-triazol-3-yl)phenyl)benzamide]
[1]
  mortality at 50 µg/cm2: 0%
[2]
  YFM % Control (or Mortality) rating: D (No activity noticed in this bioassay)
[3]
  mortality at 50 µg/cm2: 50 to 100%

## Cc1cc(F)ccc1-c1ccccc1C(=O)NCc1ccc(-c2ncn(-c3ccc(OC(F)(F)F)cc3)n2)cc1 [F40, 4′-Fluoro-2′-methyl-N-(4-(1-(4-(trifluoromethoxy)phenyl)-1H-1,2,4-triazol-3-yl)benzyl)biphenyl-2-carboxamide]
[1]
  mortality at 50 µg/cm2: 50 to 100%
[2]
  YFM % Control (or Mortality) rating: D (No activity noticed in this bioassay)
[3]
  mortality at 50 µg/cm2: 50 to 100%

## Cc1ccc(Cl)cc1-c1ccccc1C(=O)NCc1ccc(-c2ncn(-c3ccc(OC(F)(F)F)cc3)n2)cc1 [F34, 5′-Chloro-2′-methyl-N-(4-(1-(4-(trifluoromethoxy)phenyl)-1H-1,2,4-triazol-3-yl)benzyl)biphenyl-2-carboxamide]
[1]
  mortality at 50 µg/cm2: 0%
[2]
  YFM % Control (or Mortality) rating: D (No activity noticed in this bioassay)
[3]
  mortality at 50 µg/cm2: 50 to 100%

## O=C(Nc1ccc(-c2ncn(-c3ccc(OC(F)(F)F)cc3)n2)cc1)c1ccccc1Cc1ccccc1 [F3, 2-benzyl-N-(4-(1-(4-(trifluoromethoxy)phenyl)-1H-1,2,4-triazol-3-yl)phenyl)benzamide]
[1]
  mortality at 50 µg/cm2: 50 to 100%
[2]
  YFM % Control (or Mortality) rating: D (No activity noticed in this bioassay)
[3]
  mortality at 50 µg/cm2: 50 to 100%

## CCOc1ccccc1Oc1ccccc1C(=O)Nc1ccc(-c2ncn(-c3ccc(OC(F)(F)C(F)(F)F)cc3)n2)cc1 [F18, 2-(2-Ethoxyphenoxy)-N-(4-(1-(4-(perfluoroethoxy)phenyl)-1H-1,2,4-triazol-3-yl)phenyl)benzamide]
[1]
  mortality at 50 µg/cm2: 0%
[2]
  YFM % Control (or Mortality) rating: D (No activity noticed in this bioassay)
[3]
  mortality at 50 µg/cm2: 0%

## CC(C)COc1cccc(C(=O)Nc2ccc(-c3ncn(-c4ccc(OC(F)(F)F)cc4)n3)cc2)c1 [F19, 3-Isobutoxy-N-(4-(1-(4-(trifluoromethoxy)phenyl)-1H-1,2,4-triazol-3-yl)phenyl)benzamide]
[1]
  mortality at 50 µg/cm2: 0%
[2]
  YFM % Control (or Mortality) rating: D (No activity noticed in this bioassay)
[3]
  mortality at 50 µg/cm2: 50 to 100%

## O=C(Nc1ccc(-c2ncn(-c3ccc(OC(F)(F)C(F)(F)F)cc3)n2)cc1)c1ccc(Oc2ccccc2)cc1 [F10, N-(4-(1-(4-(perfluoroethoxy)phenyl)-1H-1,2,4-triazol-3-yl)phenyl)-4-phenoxybenzamide]
[1]
  mortality at 50 µg/cm2: 0%
[2]
  YFM % Control (or Mortality) rating: D (No activity noticed in this bioassay)
[3]
  mortality at 50 µg/cm2: 0%

## CC(C)c1ccccc1C(=O)NCc1ccc(-c2ncn(-c3ccc(OC(F)(F)F)cc3)n2)cc1 [F31, 2-Isopropyl-N-(4-(1-(4-(trifluoromethoxy)phenyl)-1H-1,2,4-triazol-3-yl)benzyl)benzamide]
[1]
  mortality at 50 µg/cm2: 0%
[2]
  YFM % Control (or Mortality) rating: D (No activity noticed in this bioassay)
[3]
  mortality at 50 µg/cm2: 0%

## CCOc1ccccc1Oc1ccccc1C(=O)Nc1ccc(-c2ncn(-c3ccc(OC(F)(F)F)cc3)n2)cc1 [F17, 2-(2-Ethoxyphenoxy)-N-(4-(1-(4-(trifluoromethoxy)phenyl)-1H-1,2,4-triazol-3-yl)phenyl)benzamide]
[1]
  mortality at 50 µg/cm2: 0 to 50%
[2]
  YFM % Control (or Mortality) rating: D (No activity noticed in this bioassay)
[3]
  mortality at 50 µg/cm2: 0%

## Cc1cccc(C)c1-c1ccccc1C(=O)NCc1ccc(-c2ncn(-c3ccc(OC(F)(F)F)cc3)n2)cc1 [F37, 2′,6′-Dimethyl-N-(4-(1-(4-(trifluoromethoxy)phenyl)-1H-1,2,4-triazol-3-yl)benzyl)biphenyl-2-carboxamide]
[1]
  mortality at 50 µg/cm2: 0 to 50%
[2]
  YFM % Control (or Mortality) rating: A (80-100)
[3]
  mortality at 50 µg/cm2: 50 to 100%

## O=C(Nc1ccc(-c2ncn(-c3ccc(OC(F)(F)C(F)(F)F)cc3)n2)cc1)c1ccccc1Oc1ccccc1 [F8, N-(4-(1-(4-(Perfluoroethoxy)phenyl)-1H-1,2,4-triazol-3-yl)phenyl)-2-phenoxybenzamide]
[1]
  mortality at 50 µg/cm2: 0%
[2]
  YFM % Control (or Mortality) rating: D (No activity noticed in this bioassay)
[3]
  mortality at 50 µg/cm2: 0%

## Cc1cccc(-c2ccccc2C(=O)NCc2ccc(-c3ncn(-c4ccc(OC(F)(F)F)cc4)n3)cc2)c1C [F36, 2′,3′-Dimethyl-N-(4-(1-(4-(trifluoromethoxy)phenyl)-1H-1,2,4-triazol-3-yl)benzyl)biphenyl-2-carboxamide]
[1]
  mortality at 50 µg/cm2: 0 to 50%
[2]
  YFM % Control (or Mortality) rating: A (80-100)
[3]
  mortality at 50 µg/cm2: 50 to 100%

## CC(C)c1cccc(C(=O)Nc2ccc(-c3ncn(-c4ccc(OC(F)(F)C(F)(F)F)cc4)n3)cc2)c1 [F16, 3-Isopropyl-N-(4-(1-(4-(perfluoroethoxy)phenyl)-1H-1,2,4-triazol-3-yl)phenyl)benzamide]
[1]
  mortality at 50 µg/cm2: 0%
[2]
  YFM % Control (or Mortality) rating: D (No activity noticed in this bioassay)
[3]
  mortality at 50 µg/cm2: 50 to 100%

## Cc1ccccc1-c1ccccc1C(=O)NCc1ccc(-c2ncn(-c3ccc(OC(F)(F)F)cc3)n2)cc1 [F30, 2′-Methyl-N-(4-(1-(4-(trifluoromethoxy)phenyl)-1H-1,2,4-triazol-3-yl)benzyl)biphenyl-2-carboxamide]
[1]
  mortality at 50 µg/cm2: 0 to 50%
[2]
  YFM % Control (or Mortality) rating: B (More than 0 - Less than 80)
[3]
  mortality at 50 µg/cm2: 50 to 100%

## O=C(Nc1ccc(-c2ncn(-c3ccc(OC(F)(F)F)cc3)n2)cc1)c1ccc2c(c1)OC(F)(F)O2 [F22, 2,2-Difluoro-N-(4-(1-(4-(trifluoromethoxy)phenyl)-1H-1,2,4-triazol-3-yl)phenyl)benzo[d][1,3]dioxole-5-carboxamide]
[1]
  mortality at 50 µg/cm2: 0%
[3]
  mortality at 50 µg/cm2: 0%

## O=C(Nc1ccc(-c2ncn(-c3ccc(OC(F)(F)F)cc3)n2)cc1)c1cccc2c1OC(F)(F)O2 [F21, 2,2-Difluoro-N-(4-(1-(4-(trifluoromethoxy)phenyl)-1H-1,2,4-triazol-3-yl)phenyl)benzo[d][1,3]dioxole-4-carboxamide]
[1]
  mortality at 50 µg/cm2: 50 to 100%
[3]
  mortality at 50 µg/cm2: 50 to 100%
